This is an account of results in patent US12514843B2, “Biofilm disruption” (QBIOTICS PTY LTD, priority 2019, dated 2026).

≈ marks a conversion by molar mass, not a printed value.

The subject of experiment [1] is Acinetobacter baumannii 7789 (V19). As to the kind of experiment: Minimum inhibitory concentration (MIC) assay, planktonic culture, broth dilution. Format: cell-based. Also noted: key: C = confluent growth, i.e. no MIC could be determined at any concentration tested. Particulars: A. baumannii, planktonic culture in Mueller-Hinton broth; mean of three replicate tests. The procedure: (§1) The effects of five epoxytiglienones (Compounds 1, 2, 3, 4 and 6) and two comparator comparator compounds (epoxytiglienones having longer carbon chains at the C12 position) on six human pathogenic bacteria (two Gram-positive and four Gram-negative species) were measured in conventional planktonic culture systems. A minimum inhibitory concentrations (MIC) assay (the standard assay employed to define and quantify antibiotic activity) was performed to determine antibacterial activity for each epoxytiglienone against each bacterial strain.
(§2) The Gram-positive bacteria used in this study were methicillin resistant Staphylococcus aureus (MRSA) 1004A and Streptococcus pyogenes. The Gram-negative bacteria used in this study were Pseudomonas aeruginosa PAO1, Escherichia coli IR57 (V7), Klebsiella pneumoniae, and Acinetobacter baumannii 7789 (V19). MIC assays were performed on planktonic cultures of each bacteria grown in Mueller-Hinton broth using the standard broth dilution method described by Jorgensen et al. (1999) using epoxytiglienones dissolved in ethanol.
In general terms: In broth dilution the organism is exposed to a series of concentrations in liquid medium.

Experiment [2] deals with Escherichia coli IR57 (V7). Described as above. The following applies: E. coli, planktonic culture in Mueller-Hinton broth; mean of three replicate tests. More on the design: key: C = confluent growth, i.e. no MIC could be determined at any concentration tested. The format is cell-based. The procedure: as §1, §2
Experiment [3] concerns Klebsiella pneumoniae. The experiment is described as above. Also noted: key: C = confluent growth, i.e. no MIC could be determined at any concentration tested. Format: cell-based. The following applies: K. pneumoniae, planktonic culture in Mueller-Hinton broth; mean of three replicate tests. As for the experimental part:
as §1, §2

Experiment [4] relates to Pseudomonas aeruginosa PAO1. Described as above. The following applies: P. aeruginosa, planktonic culture in Mueller-Hinton broth; mean of three replicate tests. Format: cell-based. More on the design: key: C = confluent growth, i.e. no MIC could be determined at any concentration tested. As for the experimental part: as §1, §2
In experiment [5] the test system is Streptococcus pyogenes. The experiment is described as above. The format is cell-based. More on the design: key: C = confluent growth, i.e. no MIC could be determined at any concentration tested. The following applies: S. pyogenes, planktonic culture in Mueller-Hinton broth; mean of three replicate tests. As for the experimental part:
as §1, §2

Experiment [6] concerns methicillin resistant Staphylococcus aureus (MRSA) 1004A. The description is as above. The following applies: S. aureus, planktonic culture in Mueller-Hinton broth; mean of three replicate tests. More on the design: key: C = confluent growth, i.e. no MIC could be determined at any concentration tested. The format is cell-based. The procedure:
as §1, §2

Experiment [7] concerns E. coli IR57 biofilm. The experiment can be described thus: Disruption of established in vitro biofilm, CLSM with COMSTAT image analysis. The format is cell-based, Escherichia coli. The following applies: E. coli IR57 24 h biofilm, 256 μg/mL, further 24 h; vs untreated and ethanol blank controls. As for the experimental part:
The effects of administration of Compounds 1, 4 and 6 and comparator compound CC-1 on disruption of established in vitro biofilms of Escherichia coli (E. coli) was investigated using methods described in Powell et al. (2018).
(§3) Biofilms of E. coli IR57 were grown on 96-well glass-bottomed plates in Mueller-Hinton (MH) broth for 24 h, before 50% of the supernatant was replaced with fresh MH broth with or without the epoxytiglienone compound added to a final concentration of 256 μg/mL (vehicle is ethanol). An ethanol equivalent blank was used as a further control treatment. The plates were then incubated for a further 24 h at 37° C.
(§4) Confocal laser scanning microscopy (CLSM) was then used to image the biofilms, following staining with Live/Dead® Baclight stain with phosphate buffered saline (PBS) added to each well before imaging with z-stack CLSM. The resultant images were analysed by COMSTAT software to produce measurements of (i) biofilm biomass volume or bio-volume (μm^3/μm^2) and (ii) DEAD/LIVE bacterial ratio.

Experiment [8] has as its system A. baumannii 7789 biofilm. Described as above. The format is cell-based, Acinetobacter baumannii. Particulars: 256 μg/mL; for DEAD/LIVE bacterial ratio: vs untreated and ethanol blank controls; for biofilm bio-volume (COMSTAT): vs untreated and ethanol blank controls (p<0.05). As for the experimental part: as §3, §4
(§5) The effects of the epoxytiglienones (Compounds 1, 4, 6 and the comparator compound CC-1) on disruption of established in vitro biofilms were further investigated with two other species of Gram-negative bacteria (Pseudomonas aeruginosa PA01 and Acinetobacter baumannii 7789) using methods described in Example 2 above. Cell permeabilisation following Compound 1, 4 and 6 treatment was also determined using SYTOX™ Green Nucleic Acid Stain with untreated control and positive control of 70% isopropanol.

For experiment [9], the system named is P. aeruginosa PAO1 biofilm. The experiment is described as above. The format is cell-based, Pseudomonas aeruginosa. Particulars: 256 μg/mL, vs untreated and ethanol blank controls. As for the experimental part: as §3, §4, §5
In experiment [10] the test system is E. coli IR57 biofilm. As to the kind of experiment: Multiple particle tracking (MPT) of 200 nm FluoSpheres in established biofilm. The format is cell-based, Escherichia coli. The following applies: for Diffusion coefficient (Deff) ± standard deviation: 200 nm negatively-charged carboxylate-modified FluoSpheres in E. coli IR57 biofilms, 256 μg/mL, 24 h treatment; for mean squared displacement (MSD) of FluoSphere particles / biofilm creep compliance: E. coli IR57 biofilm, vs untreated and ethanol blank controls; for mean squared displacement (MSD) of FluoSphere particles: 200 nm FluoSpheres; for biofilm creep compliance: derived from MSD vs lag time. The procedure: The effect of three epoxytiglienones (Compounds 1, 4 and 6) on the assembly and permeability of established biofilms of E. coli was assessed using multiple particle tracking (MPT). MPT is a recently described technique, allowing simultaneous tracking of micron-size particles through biofilms using microscopy, from which the diffusion-based parameters of embedded particles within the extracellular polymeric matrix (EPS) of the biofilm can be determined (Cao et al. 2016). MPT measurements also allows for calculation of micro-rheological properties of the biofilm structure following treatment with test compounds.
E. coli biofilms were established and epoxytiglienone and control treatments applied as described in Example 2 above. Twenty-four hours after application of the treatments, the biofilms were stained with SYTO9® and 0.0025% of negatively-charged, carboxylate-modified FluoSpheres® (200 nm) added onto the biofilms and incubated for a further 2 hours. FluoSphere® particle movements within the biofilms were then captured on video using epifluorescence microscopy with a high frame-rate camera (33 ms). Particle trajectories were tracked using ImageJ softwaren (Mosaic) before calculation of three parameters of the 200 nm FluoSphere® particles: (i) ensemble diffusion coefficient (Deff), (ii) ensemble mean squared displacement (MSD) and (iii) creep compliance (a measure of resistance to mechanical deformation derived from the MSD vs lag time). Each treatment was replicated three times.

For `CCCCCC=CC=CC(=O)OC1C(C)C2(O)C(C3OC3(CO)C(O)C3(O)C(=O)C(C)=CC32)C2C(C)(C)C12OC(=O)C(C)CC` (centres unmarked) [CC-1, 12-(2,4-decadienoyl)-13-(2-methylbutanoyl)-6,7-epoxy-4,5,9,12,13,20-hexahydroxy-1-tiglien-3-one, reference compound], the Minimum inhibitory concentrations result is “C” in experiment [1]; “C” in [2]; “C” in [3]; “C” in experiment [4]; 8 µg/mL (≈ 12.7 µM) in experiment [5]; 8 µg/mL (≈ 12.7 µM) in experiment [6]. In addition, the “biofilm bio-volume (COMSTAT)” value in experiment [7] is “no apparent effect”; in experiment [8], “significant reductions”. The “distribution and density of bacteria in the biofilm (CLSM)” value (“distribution and density of bacteria” below) in experiment [7] is “no apparent effect”. Moreover, the DEAD/LIVE bacterial ratio result in experiment [8] and in experiment [9] was “no significant differences” each time.
With `CCCCCC=CC=CC(=O)O[C@@H]1C(C)[C@]2(O)C(C3OC3(CO)[C@H](O)[C@@]3(O)C(=O)C(C)=CC23)C2C(C)(C)[C@]21OC(=O)C(C)CC` (stereo partly drawn) [CC-2, 12R-(2,4-decadienoyl)-13R-(2-methylbutanoyl)-6,7-epoxy-4R,5R,9S,12R,13R,20-hexahydroxy-1-tiglien-3-one, reference compound], the Minimum inhibitory concentrations result was “C” in experiment [1]; “C” in experiment [2]; “C” in [3]; “C” in experiment [4]; 8 µg/mL (≈ 12.7 µM) in experiment [5]; 16 µg/mL (≈ 25.4 µM) in experiment [6].
Turning to `C/C=C(\C)C(=O)O[C@@H]1[C@@H](C)[C@@]2(O)[C@H]([C@@H]3C(C)(C)[C@]13OC(=O)[C@@H](C)CC)[C@@H]1O[C@]1(CO)[C@@H](O)[C@]1(O)C(=O)C(C)=C[C@H]12` [Compound 1, 12-tigloyl-13-(2-methylbutanoyl)-6,7-epoxy-4,5,9,12,13,20-hexahydroxy-1-tiglien-3-one], the Minimum inhibitory concentrations result in [1] is “C”; in [2], “C”; in experiment [3], “C”; in experiment [4], “C”; in experiment [5], 128 µg/mL (≈ 227 µM); in experiment [6] it was 256 µg/mL (≈ 455 µM). The figures for the “biofilm bio-volume (COMSTAT)” value in experiment [7] and in experiment [8] were “Significant decreases” and “significant reductions”, respectively. The “distribution and density of bacteria” value in [7] is reported as “significant changes”. Also, in experiment [10], the “Diffusion coefficient (Deff) ± standard deviation” value is on record as 0.6018 ± 0.0901 cm^2 · s^−1 × 10^−9. Moreover, the “mean squared displacement (MSD) of FluoSphere particles” value in [10] was “substantially higher”. Also, the biofilm creep compliance entry in experiment [10] is given as “increased”. In addition, the DEAD/LIVE bacterial ratio entry in experiment [8] and in experiment [9] was “no significant differences” throughout.
For `CCC(C)C(=O)OC1C(C)C2(O)C(C3OC3(CO)C(O)C3(O)C(=O)C(C)=CC32)C2C(C)(C)C12OC(=O)C(C)CC` (centres unmarked) [Compound 2, 12,13-di-(2-methylbutanoyl)-6,7-epoxy-4,5,9,12,13,20-hexahydroxy-1-tiglien-3-one], the Minimum inhibitory concentrations result in [1] is “C”; in [2], “C”; in [3], “C”; in experiment [4], “C”; in experiment [5] it was 128 µg/mL (≈ 227 µM); in [6], 256 µg/mL (≈ 453 µM).
For `CCCCCC(=O)OC1C(C)C2(O)C(C3OC3(CO)C(O)C3(O)C(=O)C(C)=CC32)C2C(C)(C)C12OC(=O)C(C)CC` (centres unmarked) [Compound 3, 12-hexanoyl-13-(2-methylbutanoyl)-6,7-epoxy-4,5,9,12,13,20-hexahydroxy-1-tiglien-3-one], the Minimum inhibitory concentrations entry in [1] was “C”; in [2], “C”; in [3] it was “C”; in experiment [4], “C”; in experiment [5], 128 µg/mL (≈ 221 µM); in experiment [6], 256 µg/mL (≈ 442 µM).
As to `CCC(=O)OC1C(C)C2(O)C(C3OC3(CO)C(O)C3(O)C(=O)C(C)=CC32)C2C(C)(C)C12OC(=O)C(C)CC` (centres unmarked) [Compound 6, 12-propanoyl-13-(2-methylbutanoyl)-6,7-epoxy-4,5,9,12,13,20-hexahydroxy-1-tiglien-3-one], the Minimum inhibitory concentrations result in [1], in [2], in experiment [3], in experiment [4], in [5] and in experiment [6] was “C” in each case. Also, the “biofilm bio-volume (COMSTAT)” value in experiment [7] is given as “Decreases in bio-volume were evident”. The “distribution and density of bacteria” value in experiment [7] was “significant changes”. Also, the “Diffusion coefficient (Deff) ± standard deviation” value in [10] came out at 0.1607 ± 0.0104 cm^2 · s^−1 × 10^−9. Moreover, the “mean squared displacement (MSD) of FluoSphere particles” value in experiment [10] was “substantially higher”. Also, in experiment [10], the biofilm creep compliance entry was “increased”. Further, the DEAD/LIVE bacterial ratio result in [8] and in [9] was “no significant differences” throughout.
